ChEMBL document CHEMBL5729305, “Compounds, salts thereof and methods for treatment of diseases” (2022)

Target: 5-hydroxytryptamine receptor 2A (Homo sapiens, UniProt P28223)
Experiment: Receptor Selection and Amplification (R-SAT) Assays: R-SAT's were generally performed with 50 ng/well of receptor and 20 ng/well of β-galactosidase plasmid DNA. All receptor constructs used were in the pSI mammalian expression vector (Promega Inc) as described previously. The 5-HT2A receptor gene was amplified by nested PCR (polymerase chain reaction) from brain cDNA using the …
Format: cell-based

Sequence of 5-hydroxytryptamine receptor 2A (P28223 whole entry): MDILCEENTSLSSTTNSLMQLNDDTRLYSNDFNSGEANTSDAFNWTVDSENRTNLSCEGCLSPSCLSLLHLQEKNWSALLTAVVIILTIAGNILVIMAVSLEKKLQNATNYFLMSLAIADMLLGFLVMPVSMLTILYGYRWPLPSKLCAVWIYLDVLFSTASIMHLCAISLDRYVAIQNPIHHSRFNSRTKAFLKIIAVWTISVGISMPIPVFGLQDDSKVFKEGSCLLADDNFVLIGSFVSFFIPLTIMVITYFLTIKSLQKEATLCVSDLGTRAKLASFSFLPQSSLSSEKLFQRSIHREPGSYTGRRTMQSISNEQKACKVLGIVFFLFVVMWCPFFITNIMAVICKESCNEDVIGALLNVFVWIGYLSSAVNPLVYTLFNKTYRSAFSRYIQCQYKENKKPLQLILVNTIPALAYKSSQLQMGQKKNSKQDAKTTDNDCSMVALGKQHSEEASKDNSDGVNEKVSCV

A Ki of 10 nM was found for `CC(C)Oc1ccc(CC(=O)N(Cc2ccc(F)cc2F)[C@@H]2CCN(C)C[C@@H]2F)cc1` (mixture of isomers) in this work.
